The text below walks through data of patent publication US20160303095A1, “METHODS OF TREATING HEPATITIS B VIRUS” (Gilead Sciences, Inc., priority 2015, published 2016).

One assay concerns the target T1, KDM3A (Homo sapiens, UniProt Q9Y4C1).
T1 construct: host or cells: Sf9 cells
T1 sequence (Q9Y4C1 1-1321): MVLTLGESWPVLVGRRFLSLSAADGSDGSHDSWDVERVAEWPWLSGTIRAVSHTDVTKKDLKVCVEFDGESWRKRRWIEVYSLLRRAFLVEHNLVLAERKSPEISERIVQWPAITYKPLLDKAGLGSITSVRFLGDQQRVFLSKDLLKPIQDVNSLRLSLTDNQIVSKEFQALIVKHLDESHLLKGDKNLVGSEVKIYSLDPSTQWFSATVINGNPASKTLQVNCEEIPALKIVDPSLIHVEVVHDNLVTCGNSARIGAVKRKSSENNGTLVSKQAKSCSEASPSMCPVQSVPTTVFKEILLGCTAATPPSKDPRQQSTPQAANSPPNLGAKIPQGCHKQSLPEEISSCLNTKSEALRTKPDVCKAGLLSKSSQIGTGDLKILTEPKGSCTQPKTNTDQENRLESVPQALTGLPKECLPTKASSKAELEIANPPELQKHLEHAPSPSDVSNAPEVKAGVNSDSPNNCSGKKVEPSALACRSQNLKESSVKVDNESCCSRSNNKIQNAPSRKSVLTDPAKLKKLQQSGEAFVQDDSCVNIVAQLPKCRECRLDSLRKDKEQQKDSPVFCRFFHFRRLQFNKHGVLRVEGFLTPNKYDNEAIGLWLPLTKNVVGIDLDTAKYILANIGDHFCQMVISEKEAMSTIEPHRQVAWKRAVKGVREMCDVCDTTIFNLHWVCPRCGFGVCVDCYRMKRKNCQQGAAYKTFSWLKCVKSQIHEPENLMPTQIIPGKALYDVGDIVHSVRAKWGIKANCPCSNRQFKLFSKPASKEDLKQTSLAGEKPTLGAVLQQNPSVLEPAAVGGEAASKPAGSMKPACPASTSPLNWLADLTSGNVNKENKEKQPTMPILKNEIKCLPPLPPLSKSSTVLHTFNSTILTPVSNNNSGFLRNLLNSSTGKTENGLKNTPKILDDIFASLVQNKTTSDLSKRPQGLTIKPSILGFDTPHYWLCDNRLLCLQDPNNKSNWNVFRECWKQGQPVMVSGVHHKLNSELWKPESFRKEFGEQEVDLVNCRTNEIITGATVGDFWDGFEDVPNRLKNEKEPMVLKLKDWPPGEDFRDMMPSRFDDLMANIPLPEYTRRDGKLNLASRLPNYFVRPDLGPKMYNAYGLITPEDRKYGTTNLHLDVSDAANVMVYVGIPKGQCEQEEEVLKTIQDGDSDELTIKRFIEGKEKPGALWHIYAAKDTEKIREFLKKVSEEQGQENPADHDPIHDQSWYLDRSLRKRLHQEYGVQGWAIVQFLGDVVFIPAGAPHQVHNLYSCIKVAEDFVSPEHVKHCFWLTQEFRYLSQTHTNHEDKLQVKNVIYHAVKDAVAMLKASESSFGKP
The experiment in a line: Biochemical KDM inhibition assay (LANCE), KDM3A. Conditions: read-out: Biochemical IC50 KDM 3A.

In a further assay the target is T2, KDM2A (Homo sapiens, UniProt Q9Y2K7).
T2 construct: host or cells: Sf9 cells
T2 sequence (Q9Y2K7 1-1162): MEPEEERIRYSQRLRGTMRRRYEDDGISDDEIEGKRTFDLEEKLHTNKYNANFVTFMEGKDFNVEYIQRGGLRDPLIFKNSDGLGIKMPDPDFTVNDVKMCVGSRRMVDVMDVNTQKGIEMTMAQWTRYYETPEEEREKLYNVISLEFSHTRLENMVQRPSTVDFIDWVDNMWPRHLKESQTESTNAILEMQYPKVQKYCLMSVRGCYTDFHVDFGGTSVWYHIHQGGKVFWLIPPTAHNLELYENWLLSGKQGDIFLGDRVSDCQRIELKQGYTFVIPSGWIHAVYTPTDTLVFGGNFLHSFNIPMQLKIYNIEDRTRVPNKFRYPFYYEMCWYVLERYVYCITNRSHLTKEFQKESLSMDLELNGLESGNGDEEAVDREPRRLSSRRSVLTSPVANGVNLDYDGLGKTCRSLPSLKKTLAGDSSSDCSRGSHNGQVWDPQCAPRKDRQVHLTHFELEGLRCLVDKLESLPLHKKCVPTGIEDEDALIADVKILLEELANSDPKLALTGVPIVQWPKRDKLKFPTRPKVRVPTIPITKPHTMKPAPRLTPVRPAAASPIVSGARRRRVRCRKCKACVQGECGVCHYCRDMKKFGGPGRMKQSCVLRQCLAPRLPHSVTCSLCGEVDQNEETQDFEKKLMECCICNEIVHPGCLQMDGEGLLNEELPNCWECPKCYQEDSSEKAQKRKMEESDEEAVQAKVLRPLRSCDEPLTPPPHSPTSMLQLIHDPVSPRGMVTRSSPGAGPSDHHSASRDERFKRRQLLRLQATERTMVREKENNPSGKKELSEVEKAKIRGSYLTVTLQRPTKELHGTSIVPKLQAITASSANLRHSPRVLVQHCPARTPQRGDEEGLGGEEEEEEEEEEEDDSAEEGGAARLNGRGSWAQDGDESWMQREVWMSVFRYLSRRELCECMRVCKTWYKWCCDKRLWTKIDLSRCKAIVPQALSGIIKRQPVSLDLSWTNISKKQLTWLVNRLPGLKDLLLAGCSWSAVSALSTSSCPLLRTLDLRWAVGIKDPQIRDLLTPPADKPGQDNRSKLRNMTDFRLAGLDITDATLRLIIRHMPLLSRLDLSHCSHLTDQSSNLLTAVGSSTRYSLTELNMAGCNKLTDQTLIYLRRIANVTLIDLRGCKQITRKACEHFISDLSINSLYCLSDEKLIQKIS
The experiment in a line: Biochemical KDM inhibition assay (LANCE), KDM2A. Conditions: read-out: Biochemical IC50 KDM 2A. The protocol: (§1) Representative compounds were characterized for their inhibition of KDM5 using biotinylated histone substrates. Inhibition was measured in vitro (CEREP Poitier, Le Bois l'Evêque, France) following experimental conditions described in Table 2. Briefly, the test compound, reference compound or water (control) was mixed with about 2-20 ng of recombinant, Human enzymes expressed in Sf9 cells in a buffer containing 45 mM Hepes/Tris (pH 7), 5 μM FAS, 100 μM ascorbic acid, 10 μM 2-oxoglutarate, 0.01% Tween 20 and 0.01% BSA. Thereafter, the reaction was initiated by adding the biotin-labeled substrate, and the mixture was incubated for 10-30 min at room temperature. For basal control measurements, the enzyme was omitted from the reaction mixture. Following incubation the reaction was stopped by adding 1 mM EDTA. After 5 min, the anti-methyl histone antibody labeled with europium chelate and the Ulight streptavidine (Perkin Elmer Waltham, Mass.) were added. After 60 min more, the fluorescence transfer was measured at λex=320 nm and λem=620 and λem=665 nm using a microplate reader (Envision, Perkin Elmer) (LANCE). The enzyme activity was determined by dividing the signal measured at λem=665 nm by that measured at 620 nm (ratio).

In another assay the target is T3, KDM6A (Homo sapiens, UniProt O15550).
T3 construct: host or cells: Sf9 cells
The experiment in a line: Biochemical KDM inhibition assay (LANCE), KDM6A. Conditions: read-out: Biochemical IC50 KDM 6A. On the procedure: as §1
(In general: In TR-FRET formats the signal depends on donor and acceptor labels being close together.)

T3 sequence (O15550 whole entry): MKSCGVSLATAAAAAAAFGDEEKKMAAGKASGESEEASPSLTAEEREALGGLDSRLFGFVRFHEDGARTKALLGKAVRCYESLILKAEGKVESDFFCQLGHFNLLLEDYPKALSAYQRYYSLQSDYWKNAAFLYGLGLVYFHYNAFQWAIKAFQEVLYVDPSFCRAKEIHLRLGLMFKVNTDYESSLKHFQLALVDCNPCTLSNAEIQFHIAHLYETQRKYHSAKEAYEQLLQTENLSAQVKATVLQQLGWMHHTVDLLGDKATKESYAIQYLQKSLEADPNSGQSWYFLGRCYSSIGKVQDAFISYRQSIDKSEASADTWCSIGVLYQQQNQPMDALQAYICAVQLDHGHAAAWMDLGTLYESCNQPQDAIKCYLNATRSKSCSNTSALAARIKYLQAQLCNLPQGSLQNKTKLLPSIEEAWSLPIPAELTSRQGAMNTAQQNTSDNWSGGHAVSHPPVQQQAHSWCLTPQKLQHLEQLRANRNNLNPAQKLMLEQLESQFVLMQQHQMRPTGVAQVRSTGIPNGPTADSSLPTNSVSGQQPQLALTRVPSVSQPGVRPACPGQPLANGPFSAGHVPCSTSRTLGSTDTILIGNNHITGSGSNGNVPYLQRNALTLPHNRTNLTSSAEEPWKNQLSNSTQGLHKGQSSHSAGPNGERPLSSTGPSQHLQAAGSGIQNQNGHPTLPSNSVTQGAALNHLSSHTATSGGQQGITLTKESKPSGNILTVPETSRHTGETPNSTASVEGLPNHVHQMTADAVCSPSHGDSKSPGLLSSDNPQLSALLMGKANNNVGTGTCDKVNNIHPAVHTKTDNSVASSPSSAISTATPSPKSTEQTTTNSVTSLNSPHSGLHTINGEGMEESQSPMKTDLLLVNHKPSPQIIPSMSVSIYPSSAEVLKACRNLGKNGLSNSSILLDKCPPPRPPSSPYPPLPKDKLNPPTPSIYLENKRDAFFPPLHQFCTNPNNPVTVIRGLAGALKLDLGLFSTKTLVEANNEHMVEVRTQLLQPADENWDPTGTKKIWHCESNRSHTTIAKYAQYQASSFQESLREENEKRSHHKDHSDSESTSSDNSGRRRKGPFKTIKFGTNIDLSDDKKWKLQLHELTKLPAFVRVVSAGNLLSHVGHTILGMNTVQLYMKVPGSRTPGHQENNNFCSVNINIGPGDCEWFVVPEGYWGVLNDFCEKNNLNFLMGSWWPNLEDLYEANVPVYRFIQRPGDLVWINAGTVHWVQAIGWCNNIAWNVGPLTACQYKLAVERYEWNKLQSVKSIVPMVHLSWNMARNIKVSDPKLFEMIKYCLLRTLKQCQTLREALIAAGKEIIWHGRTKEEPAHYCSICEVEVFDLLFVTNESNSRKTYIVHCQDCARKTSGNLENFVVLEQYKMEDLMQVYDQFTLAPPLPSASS

As for `Nc1c(C(=O)O)ccnc1C(=O)O` [Example 7, reference compound], the IC50 (in general, the point on the concentration scale where inhibition reaches its midpoint) at KDM3A came to 1.2 µM; at KDM2A, 0.36 µM; on KDM6A, 0.93 µM.

In the case of `CCN(CCN(C)C)C(=O)CNCc1cc(C(=O)O)ccn1` [Example 9], the IC50 on KDM3A came out at 1.1 µM; at KDM2A it was 0.65 µM; at KDM6A, 1.3 µM.

With `Cc1cc(Cl)ccc1COc1ccnn1-c1cc(C(=O)O)ccn1` [Example 11], the half-inhibitory concentration (IC50) at KDM3A was 7.5 µM; at KDM2A it was 0.45 µM; on KDM6A it was 0.074 µM.

For the compound `O=C(O)c1ccncc1Nc1nn(CCN2CCC(F)(F)CC2)c2ccc(F)cc12` [Example 13], the results for the IC50 at KDM2A and at KDM6A were 0.51 µM and 0.14 µM, respectively.

As for `N#CNC(=O)c1ccncc1Nc1nn(CCN2CCC(F)(F)CC2)c2ccc(F)cc12` [Example 14], the IC50 on KDM3A is 3.9 µM.

Take `CCN(CC)CCCCNCc1cc(C(=O)O)ccn1` [Example 18]: the IC50 at KDM3A was 5.4 µM; at KDM2A it was 2 µM; at KDM6A, 5.5 µM.
